Experimental findings from ChEMBL document CHEMBL2062371, “Synthesis of benzamide derivatives and their evaluation as antiprion agents” (Bioorg Med Chem, 2012) are described below.

This test deals with ScN2a. Briefly: Antiprion activity in mouse ScN2a cells assessed as inhibition of PrPSc formation at 17 uM after 3 days by dot blot assay relative to control. The test is classed as cell-based.

Calls of active or inactive are those of the source. The calls are words filed in the database; no cut-off is given here.

For the molecule `CCCCCCCC/C=C\CCCCCCCOCC(C[N+](C)(C)CCNC(=O)C(CCCNCCCN)NCCCN)OCCCCCCC/C=C\CCCCCCCC` (stereo unspecified), the inhibition entry was “Active”.
